Data as given in patent US8436019B2, “Sulfonyl-piperidin-4-yl methylamine amide analogs as GlyT1 inhibitors, methods for making same, and use of same in treating psychiatric disorders” (Vanderbilt University, priority 2009, dated 2013).
Where two headings read alike, the source gives them in different places.

Target: T1, GlyT1 (Homo sapiens, UniProt P48067)
T1 construct: Human placental choriocarcinoma cells endogenously expressing GlyT1; endogenous in cells; host or cells: JAR cells (human placental choriocarcinoma)
T1 sequence (P48067 1-706): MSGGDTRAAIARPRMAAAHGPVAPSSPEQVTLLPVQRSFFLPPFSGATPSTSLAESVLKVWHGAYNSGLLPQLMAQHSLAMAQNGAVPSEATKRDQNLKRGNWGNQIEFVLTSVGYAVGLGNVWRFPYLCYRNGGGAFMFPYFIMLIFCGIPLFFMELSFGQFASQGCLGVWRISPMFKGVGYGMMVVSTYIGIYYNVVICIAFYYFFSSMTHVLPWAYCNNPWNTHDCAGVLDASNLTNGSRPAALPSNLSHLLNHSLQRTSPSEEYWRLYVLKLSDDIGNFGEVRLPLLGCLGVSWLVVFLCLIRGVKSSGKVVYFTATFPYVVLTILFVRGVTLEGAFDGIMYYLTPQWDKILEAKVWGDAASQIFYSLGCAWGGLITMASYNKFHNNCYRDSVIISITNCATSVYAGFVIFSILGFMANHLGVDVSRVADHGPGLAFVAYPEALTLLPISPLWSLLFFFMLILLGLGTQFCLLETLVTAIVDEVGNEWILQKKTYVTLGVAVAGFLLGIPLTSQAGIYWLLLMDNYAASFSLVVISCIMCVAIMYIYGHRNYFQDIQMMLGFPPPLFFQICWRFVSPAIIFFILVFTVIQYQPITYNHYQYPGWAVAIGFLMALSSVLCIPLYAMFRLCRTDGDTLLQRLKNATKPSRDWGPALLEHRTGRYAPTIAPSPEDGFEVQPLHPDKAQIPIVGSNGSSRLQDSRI
Assay: [14C]-glycine uptake inhibition in JAR cells (human placental choriocarcinoma cells endogenously expressing GlyT1)
Assay type: cell-based
Details: inhibition of specific [14C]-glycine uptake, read-out: Potency
Experimental: Human placental choriocarcinoma cells endogenously expressing GlyT1 can be cultured using standard conditions. Cells can then be grown at 37° C. in a humidified atmosphere 40-48 hours before the assay. Culture medium can be removed from the culture plate, and cells can be incubated with an amount of TB1A buffer with or without the compounds of the present invention for a sufficient period of time. Then an amount of [^14C]-glycine diluted with TB1A can be added to each well. After incubation the microplates can be sealed and counted. Non-specific uptake of [^14C]-glycine can be determined in the presence of unlabeled glycine. To determine potencies, a range of concentrations of the compounds of the present invention can be added to the cells, followed by the fixed concentration of [^14C]-glycine. The concentration of the present compound that inhibited half of the specific uptake of [^14C]glycine (IC50 value) can be determined from the assay data by non-linear curve fitting.

IC50 (values given in μM) | IC50 (values in nM) | SMILES
1.5 µM |  | CCCS(=O)(=O)N1CCC(C(NC(=O)c2ccc(Cl)cc2Cl)c2ccccc2)CC1 (racemic) [Compound 3a]
 | 0.201 µM | Cn1cnc(S(=O)(=O)N2CCC(C(NC(=O)c3ccc(Cl)cc3Cl)c3ccccc3)CC2)c1 (racemic) [Compound 3b]
 | 0.046 µM | Cn1cnc(S(=O)(=O)N2CCC(C(NC(=O)c3ccc(Cl)cc3Cl)c3ccccn3)CC2)c1 (racemic) [Compound 8a]
> 10 µM |  | CCCS(=O)(=O)N1CCC(C(NC(=O)c2ccc(Cl)cc2Cl)c2ccccc2)CC1 (single isomer, unassigned) [Compound 3a-1]
 | 0.609 µM | CCCS(=O)(=O)N1CCC(C(NC(=O)c2ccc(Cl)cc2Cl)c2ccccc2)CC1 (single isomer, unassigned) [Compound 3a-2]
> 10 µM |  | Cn1cnc(S(=O)(=O)N2CCC(C(NC(=O)c3ccc(Cl)cc3Cl)c3ccccc3)CC2)c1 (single isomer, unassigned) [Compound 3b-1]
 | 0.178 µM | Cn1cnc(S(=O)(=O)N2CCC(C(NC(=O)c3ccc(Cl)cc3Cl)c3ccccc3)CC2)c1 (single isomer, unassigned) [Compound 3b-2]
 | 0.09 µM | Cn1cnc(S(=O)(=O)N2CCC(C(NC(=O)c3ccc(Cl)cc3Cl)c3ccccn3)CC2)c1 (single isomer, unassigned) [Compound 8a-1]
1.6 µM |  | Cn1cnc(S(=O)(=O)N2CCC(C(NC(=O)c3ccc(Cl)cc3Cl)c3ccccn3)CC2)c1 (single isomer, unassigned) [Compound 8a-2]
2.4 µM |  | Cn1cc(S(=O)(=O)N2CCC(C(NC(=O)c3ccc(Cl)cc3Cl)c3ccccc3)CC2)cn1 (centres unmarked) [Compound 3c]
> 10 µM |  | Cn1cnc(S(=O)(=O)N2CCC(C(NC(=O)c3ccccc3Cl)c3ccccc3)CC2)c1 (centres unmarked) [Compound 5a]
1.6 µM |  | Cn1cnc(S(=O)(=O)N2CCC(C(NC(=O)c3ccccc3C(F)(F)F)c3ccccn3)CC2)c1 (centres unmarked) [Compound 8b]
> 10 µM |  | Cn1cnc(S(=O)(=O)N2CCC(C(NC(=O)c3c(F)cccc3F)c3ccccn3)CC2)c1 (centres unmarked) [Compound 8c]
 | 0.718 µM | Cn1cnc(S(=O)(=O)N2CCC(C(NC(=O)c3ccc(Cl)cc3)c3ccccn3)CC2)c1 (centres unmarked) [Compound 8d]
 | 0.853 µM | Cn1cnc(S(=O)(=O)N2CCC(C(NC(=O)c3ccc(F)cc3F)c3ccccn3)CC2)c1 (centres unmarked) [Compound 8e]
 | 0.174 µM | Cn1cnc(S(=O)(=O)N2CCC(CNC(=O)c3ccc(Cl)cc3Cl)CC2)c1 [Compound 9a]
 | 0.53 µM | CC(NC(=O)c1ccc(Cl)cc1Cl)C1CCN(S(=O)(=O)c2cn(C)cn2)CC1 (centres unmarked) [Compound 9b]
